Reference: ChEMBL document CHEMBL5108052, “Histone Deacetylase and Enhancer of Zeste Homologue 2 Dual Inhibitors Presenting a Synergistic Effect for the Treatment of Hematological Malignancies” (J Med Chem, 2022)

How the values were obtained:
MV4-11 [1] = experiment: Induction of apoptosis in human MV4-11 cells assessed as late apoptotic cells at 0.1 uM measured after 48 hrs by Annexin V/7-AAD-dual staining based flow cytometric analysis (reference value: 1.1 %); type: functional
[2] = target: T1, Protein deacetylase HDAC6 (Homo sapiens, UniProt Q9UBN7); experiment: Inhibition of HDAC6 (unknown origin) preincubated for 5 mins followed by substrate addition and measured after 30 mins by multimode microplate reader analysis
T1 sequence (Q9UBN7 whole entry): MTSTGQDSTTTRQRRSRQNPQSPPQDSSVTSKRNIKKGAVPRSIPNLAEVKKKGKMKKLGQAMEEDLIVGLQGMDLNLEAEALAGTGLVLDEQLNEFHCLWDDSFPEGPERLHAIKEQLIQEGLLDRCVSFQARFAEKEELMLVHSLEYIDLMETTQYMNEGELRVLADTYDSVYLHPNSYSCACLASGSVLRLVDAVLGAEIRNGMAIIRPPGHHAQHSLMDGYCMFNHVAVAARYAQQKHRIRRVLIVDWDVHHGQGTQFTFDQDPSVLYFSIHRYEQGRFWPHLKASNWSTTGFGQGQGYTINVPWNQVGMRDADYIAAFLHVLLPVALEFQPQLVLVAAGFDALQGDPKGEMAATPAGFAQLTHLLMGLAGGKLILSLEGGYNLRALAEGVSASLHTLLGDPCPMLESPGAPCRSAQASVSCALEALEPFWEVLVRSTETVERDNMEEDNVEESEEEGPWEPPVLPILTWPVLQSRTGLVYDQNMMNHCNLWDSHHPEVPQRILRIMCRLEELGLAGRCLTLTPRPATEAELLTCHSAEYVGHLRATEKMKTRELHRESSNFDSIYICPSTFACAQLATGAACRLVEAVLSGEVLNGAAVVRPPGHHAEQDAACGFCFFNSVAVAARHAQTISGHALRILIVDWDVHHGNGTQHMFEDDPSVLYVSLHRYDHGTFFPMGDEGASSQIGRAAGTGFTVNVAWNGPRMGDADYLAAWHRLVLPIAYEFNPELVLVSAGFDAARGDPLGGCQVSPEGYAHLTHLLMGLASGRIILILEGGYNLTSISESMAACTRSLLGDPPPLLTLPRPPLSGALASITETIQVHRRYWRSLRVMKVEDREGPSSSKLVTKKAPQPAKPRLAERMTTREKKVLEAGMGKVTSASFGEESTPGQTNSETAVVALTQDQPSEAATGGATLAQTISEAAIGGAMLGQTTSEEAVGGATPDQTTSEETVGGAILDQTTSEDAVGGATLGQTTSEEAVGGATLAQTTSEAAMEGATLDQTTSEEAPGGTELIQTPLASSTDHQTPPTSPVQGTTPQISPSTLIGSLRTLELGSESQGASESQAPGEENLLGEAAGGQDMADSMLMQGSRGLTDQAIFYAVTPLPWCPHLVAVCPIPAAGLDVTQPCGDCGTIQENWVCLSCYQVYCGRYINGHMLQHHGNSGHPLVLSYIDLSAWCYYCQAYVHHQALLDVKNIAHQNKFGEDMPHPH

Histone deacetylase 11 = target: T2, Histone deacetylase 11 (Homo sapiens, UniProt Q96DB2); experiment: Inhibition of N-terminal Strep2-tagged recombinant His-tagged human HDAC11 (1 to 347 residues) using trifluoroacetyl lysine as substrate incubated for 2 hrs by Multimode microplate reader analysis
T2 sequence (Q96DB2 whole entry): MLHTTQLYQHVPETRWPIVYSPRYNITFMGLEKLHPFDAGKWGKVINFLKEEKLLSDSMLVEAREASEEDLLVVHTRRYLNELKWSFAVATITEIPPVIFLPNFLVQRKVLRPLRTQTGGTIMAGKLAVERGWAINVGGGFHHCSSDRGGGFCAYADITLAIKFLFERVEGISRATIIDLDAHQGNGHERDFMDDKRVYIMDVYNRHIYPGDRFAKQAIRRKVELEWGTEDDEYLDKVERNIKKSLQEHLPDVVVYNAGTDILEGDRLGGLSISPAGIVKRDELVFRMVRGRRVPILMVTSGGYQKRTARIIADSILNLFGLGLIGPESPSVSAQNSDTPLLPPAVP

Histone deacetylase 7 = target: T3, Histone deacetylase 7 (Homo sapiens, UniProt Q8WUI4); experiment: Inhibition of N-terminal GST-fusion tagged recombinant human HDAC7 (518 to 991 residues) expressed in insect cells using trifluoroacetyl lysine as substrate incubated for 2 hrs by Multimode microplate reader analysis
T3 sequence (Q8WUI4 whole entry): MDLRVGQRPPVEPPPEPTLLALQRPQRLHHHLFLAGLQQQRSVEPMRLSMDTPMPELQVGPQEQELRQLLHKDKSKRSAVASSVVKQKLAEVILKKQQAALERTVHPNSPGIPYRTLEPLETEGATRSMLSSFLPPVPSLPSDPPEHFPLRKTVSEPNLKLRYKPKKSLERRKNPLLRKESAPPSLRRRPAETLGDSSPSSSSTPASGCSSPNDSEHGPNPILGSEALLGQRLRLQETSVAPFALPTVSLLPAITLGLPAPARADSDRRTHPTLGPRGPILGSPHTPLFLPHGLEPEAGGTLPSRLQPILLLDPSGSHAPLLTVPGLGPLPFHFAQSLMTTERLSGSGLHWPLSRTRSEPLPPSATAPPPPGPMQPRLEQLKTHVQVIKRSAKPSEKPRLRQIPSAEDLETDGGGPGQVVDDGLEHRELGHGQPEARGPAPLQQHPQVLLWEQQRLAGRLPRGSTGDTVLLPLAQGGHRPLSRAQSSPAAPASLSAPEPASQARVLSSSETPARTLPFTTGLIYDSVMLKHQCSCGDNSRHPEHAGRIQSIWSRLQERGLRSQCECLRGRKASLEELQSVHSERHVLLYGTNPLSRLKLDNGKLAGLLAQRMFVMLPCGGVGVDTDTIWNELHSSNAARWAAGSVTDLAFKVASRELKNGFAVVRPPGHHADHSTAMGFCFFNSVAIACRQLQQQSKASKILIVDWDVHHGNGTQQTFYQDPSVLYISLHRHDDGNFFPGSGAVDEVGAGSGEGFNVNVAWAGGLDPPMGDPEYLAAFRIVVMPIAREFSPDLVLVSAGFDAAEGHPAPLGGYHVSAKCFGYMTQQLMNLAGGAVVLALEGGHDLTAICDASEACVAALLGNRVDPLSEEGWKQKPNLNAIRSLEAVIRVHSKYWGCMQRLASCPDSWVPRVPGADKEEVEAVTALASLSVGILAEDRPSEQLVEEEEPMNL

MV4-11 [3] = experiment: Induction of apoptosis in human MV4-11 cells assessed as late apoptotic cells at 0.4 uM measured after 48 hrs by Annexin V/7-AAD-dual staining based flow cytometric analysis (reference value: 1.1 %); type: functional
MV4-11 [4] = experiment: Antitumor activity against human MV4-11 cells xenografted in BALB/c nude mouse assessed as tumor growth inhibition at 50 mg/kg, ip administered for 20 days in presence of by vernier caliper analysis; type: functional; settings: MV4-11, 480 h, time 20 day, read-out: TGI
Homo sapiens = species: Homo sapiens; settings: time 90.0 sec
MV4-11 [5] = experiment: Induction of apoptosis in human MV4-11 cells assessed as early apoptotic cells at 0.4 uM measured after 48 hrs by Annexin V/7-AAD-dual staining based flow cytometric analysis (reference value: 2.2 %); type: functional

## Cc1cc(C)c(CNC(=O)c2cc(-c3ccc(N4CCN(c5ncc(C(=O)NO)cn5)CC4)nc3)cc3c2cnn3C(C)C)c(=O)[nH]1
MV4-11 [1]
  Activity: 4.4%
[2]
  IC50: 700 nM
Histone deacetylase 11
  IC50: 2560 nM
Histone deacetylase 7
  IC50: 8190 nM
MV4-11 [3]
  Activity: 17.1%
MV4-11 [4]
  inhibition in vivo at 50 mg/kg: 65.7%
Homo sapiens
  Ka: 2.18 10^5/M/s
MV4-11 [5]
  Activity: 23.3%
